Data on one substance can be found in patent publication US20080269121A1, “Methods and Compositions Involving A1c Subunit of L-Type Calcium Channels in Smooth Muscle Cells” (The Board of Regents of the University of Texas System, priority 2005, published 2008).

Test [1] concerns cAMP. Put plainly: cAMP levels in HCCSMC. The test is classed as cell-based, human. The text has this:
(§1) Primary cultures of HCCSMC: Human tissue was obtained from the descending and sigmoid colons with approval of the University of Texas Medical Branch Institutional Review Board from disease free margins of resected segments from patients undergoing surgery for colon cancer. The circular muscle layer was separated from the taenia coli and lamina propria with a tissue slicer. The circular muscle layer was collected in ice-cold HEPES buffer (in mM: 120 NaCl, 2.6 KH2S04, 4 KCl, 2 CaCl2, 0.6 MgCl2, 25 HEPES, 14 glucose and 2.1% essential amino acid mixture, pH 7.4). Two successive digestions with papain and collagenase, as described previously by Shi and Sarna, were used to disperse smooth muscle cells. The cells were cultured in RPMI 1640 (Gibco/Invitrogen, Carlsbad, Calif.) supplemented with 10% fetal bovine serum in the presence of 100 units/mL of penicillin G, 100 μg/mL of streptomycin sulfate and 0.25 μg/mL of amphoteracin B. The culture medium was changed every three days. Cells in passages 3 to 5 were used in all experiments. All cells were cultured in serum-free medium for at least 15 h prior to experiments to eliminate the possible effects of growth factors. […] The cultures of colonic smooth muscle cells retain their contractile phenotype. Each experiment used cells or muscle strips from at least three different subjects.
(cAMP levels reflect the balance of adenylyl cyclase and phosphodiesterase activity.)

Test [2] relates to HCCSMC. Put plainly: Cytosolic free Ca^2+ measurement (fura-2 AM) in HCCSMC. The test is classed as cell-based, human. As to conditions: treatment for 24 h, by. How it is done: Cytosolic free Ca^2+ measurement: Cytosolic calcium level ([Ca^2+]i) was measured in a wide-field imaging system at the UTMB core Optical Imaging Laboratory using the Ca^2+-sensitive fluorescent dye fura 2-AM (Molecular Probes, Eugene, Oreg.). HCCSMC cultured on cover slips were incubated with 1 μM fura 2-AM for 45 min at 37° C. in a modified HEPES buffer (pH 7.4) containing (in mM): 10 HEPES, 125 NaCl, 5 KCl, 1 CaCl2, 0.5 MgSO4, 5 glucose. Cover slips with cells were washed with fresh medium and mounted on the stage of a Nikon TE200 inverted microscope (Nikon Instruments, Lewisville, Tex.) equipped with a CoolSNAP HQ cooled-CCD monochrome digital camera (Roper Scientific, Tucson Ariz.). Cells were examined under a super-fluor 20×0.75 NA objective during exposure to alternating 340 and 380 nm excitation light (DG4 illuminator system, Sutter Instrument, Novato, Calif.), and the intensity of light emission at 510 nm was measured. The light intensities and their ratio, F340/F380, which reflects changes in Ca^2+ concentration, were followed simultaneously in several single cells in the field. The acquisition process was controlled by the Metafluor image acquisition software (Universal Imaging Corp. Downingtown, Pa.).

Test [3] deals with TNBS-induced inflammation. The test is classed as in vivo, rat. As to conditions: intact rat model, treatment through osmotic pumps, expected. The protocol:
Muscle bath experiments. Pure circular muscle strips (2 mm×10 mm) are prepared from resected human colon segments. The strips are mounted in 5 ml baths filled with carbonated Krebs solution (in mM: 118 NaCl, 4.7 KCl, 2.5 CaCl2, 1 NaH2PO4, 1-2 MgCl2, 11 D-glucose, and 25 NaHCO3) at 37° C. (Siebenlist et al., 1994; Barnes and Karin, 1997). The muscle strips are equilibrated for 1 h at 1 g tension and then stretched until maximal response is obtained to 10^−4 m ACh. The bathing solution is replaced every 15 min. Contractions are measured by force transducers and analyzed by DATAQ (Akron, Ohio) software.
Vertebrate Animals. Sprague-Dawley rats were used. For tissue harvesting, the rats were anesthetized with 5% isoflurame in 100% oxygen for 5 to 7 minutes followed by i.p. injection of 50 mg/kg ketamine.
Osmotic pumps were implanted under anesthesia as discussed above. Lateral surface of left back were shaven and cleaned with betadine. A 2 cm incision was made in the skin and subcutaneous facia and muscle separated. The micro-osmotic pump were implanted intramuscularly and the incision was closed.
Colonic inflammation was induced by intraluminal injection of 30 mg/kg or 130-mg/kg trinitrobenzene sulfonic acid (TNBS) under anesthesia, as described above.

Test [4] concerns CREB. Put plainly: CREB phosphorylation in HCCSMC. It counts as cell-based, human. How it is done:
(§2) Western immunoblotting. Each lane is loaded with 10 μg protein and size-separated on a 10% SDS polyacrylamide gel. After blotting, the nitrocellulose membranes are blocked with 10% non-fat dried milk at 4° C. overnight. The blots are incubated with appropriate dilution of the antibody at 4° C. overnight and appropriate dilution of designated secondary antibody at room temperature for 1 h. β-actin is used as internal control.

In test [5] the test system is JNK/SAPK. As to the kind of experiment: MAP kinase phosphorylation: JNK/SAPK. It counts as cell-based.
Test [6] concerns α1C1b promoter. Put plainly: α1C1b promoter luciferase reporter activity in HCCSMC. The test is classed as cell-based, human. How it is done:
Transient cell transfections and luciferase activity. FuGENE 6 (Roche, Mannheim, Germany) is used to transfect luciferase-expressing pGL2 constructs in HCCSMC. The cells in passage 4 are seeded into 12-well plates (Costar, Acton, Mass.) and grown to 70% to 80% confluency. Transfections are carried out by incubation of cells in each well with 1.5 μl of FuGENE 6, 0.5 μg of pGL2 construct, and 0.125 μg of pSEAP2 Control Vector (BD Biosciences Clontech, Palo Alto, Calif.) for 24 h as per manufacturer's instructions. The pSEAP2 Control Vector is co-transfected for normalization of data. The transfected cells were treated with stimulus or medium control and harvested after 24 hours. Twenty μl of the supernatant of the cell lysates are taken for the measurement of luciferase activity by a luminometer (Promega, Madison, Wis.). The SEAP activity is measured with a Clontech SEAP detection kit by following the manufacturer's instructions.
Promoter constructs, 5′-deletions, and site-directed mutagenesis. The promoter constructs of hα1c1b are prepared by PCR amplification of human genomic DNA (Roche, Indianapolis, Ind.) and digested partially with Hind III (Promega, Madison, Wis.) using the FailSafe PCR kit (Epicentre, Madison, Wis.). The PCR product is subcloned into pDrive Cloning Vector with the PCR Cloning^plus kit (Qiagen, Valencia, Calif.) and SURE 2 supercompetent cells (Stratagene, La Jolla, Calif.) and subsequently transferred to the luciferase expression plasmid pGL2-Basic Vector (Promega, Madison, Wis.). The deletion constructs are made using the full length promoter construct as a template in PCR reactions. The same methods and kits are used to subclone the sequenced PCR products into the pDrive and pGL2 vector. The site-directed mutagenesis is carried out using QuikChange® II XL Site-Directed Mutagenesis Kit from Stratagene (La Jolla, Calif.), as per manufacturer's instructions.
On the technique in general: A reporter such as luciferase makes a cellular process visible.

The subject of test [7] is α1C subunit of L-type Ca^2+ channels. Put plainly: α1C protein expression (Western immunoblotting). It counts as cell-based, human.
From the text: as §1, §2
In general terms: Immunoblotting shows a protein as a band on a membrane.

“Also recorded” adds a separate entry of the source.

For the substance vasoactive intestinal polypeptide [VIP], the “duration of elevated cAMP levels” value in test [1] is recorded as “at least 24 h”. Further, in test [1] (24 h treatment), the “intercellular cAMP levels” value is recorded as “elevated throughout the 24 h period”. The “Ca^2+ influx” value in test [2] was “enhanced Ca^2+ influx”. Further, the “effect on suppression of contractility due to TNBS-induced inflammation” value in test [3] is “partially inhibit the suppression of contractility”. Also, the “duration of CREB phosphorylation” value in test [4] was “lasted about one hour”. Further, the “phosphorylation of CREB” value in test [4] (HCCSMC) was “phosphorylated upon exposure to VIP; also recorded: transient phosphorylation”. Moreover, the “phosphorylation of JNK/SAPK” value in test [5] was “time-dependently dephosphorylated”. Further, the “α1C1b promoter reporter (luciferase) activity” value in test [6] (substance by itself) is “enhanced in a concentration-dependent manner; also recorded: concentration-dependently increased; also recorded: enhanced promoter activity in normal cells”. In test [6] (with TNFα), the “effect on suppression of α1C1b promoter activity by TNFα” value is on record as “significantly blocked this reduction; also recorded: partially blocked the suppression”. Further, the “increase of α1C protein” value in test [7] (adult human colonic circular smooth muscle cells) is on record as “about 100%”. In addition, the “effect on TNFα suppression of α1C protein” value in test [7] (muscle strip tissue, FIG. 14 top) is on record as “minimized”.
